Read-outs that look alike come from different tables or passages of the source.
Test system: HBeAg (surrogate marker for cccDNA) in HepDES19 cells
Test: Engineered HepDES19 primary screen assay (HBeAg ELISA)
Type: cell-based, HBV
Description: The assay was employed to screen for novel cccDNA inhibitors. HepDES19 is a cccDNA-producing cell line. In this cell line, HBeAg in the cell culture supernatant as surrogate marker, as HBeAg production depends on cccDNA level and activity. HepDES19 is an engineered cell line which contains a 1.1 unit length HBV genome, and pgRNA transcription from the transgene is controlled by Tetracycline (Tet). In the absence of Tet, pgRNA transcription will be induced, but HBV e antigen (HBeAg) could not be produced from this pgRNA due to very short leader sequence before the HBeAg start codon and the start codon is disrupted. Only after cccDNA is formed, the missing leader sequence and start codon mutation would be restored from the 3′-terminal redundancy of pgRNA, and then HBeAg could be synthesized. Therefore, HBeAg could be used as a surrogate marker for cccDNA (Zhou, T. et al., Antiviral Res. (2006), 72(2), 116-124; Guo, H. et al., J. Virol. (2007), 81(22), 12472-12484).
HepDES19 cells were seeded at 2×10^6 cells per T150 flask and cultured with the culture medium (Dulbecco's Modified Eagle Medium: Nutrient Mixture F-12 [DMEM-F12, Gibco Cat. 11320-82], 10% Fetal Bovine Serum [FBS, Clontech Cat. 631101], 0.1 mM Non-Essential Amino Acids Solution [NEAA, Gibco Cat. 11140-050], 50 μg/mL Penicillin-Streptomycin [PS, Invitrogen Cat. 15140-163], 500 μg/mL Geneticin [G418, Invitrogen Cat. 10131-027]) containing 3 μg/mL Tet (Sigma, Cat. 87128) for 5 days. Cells were then seeded at 4×10^6 cells per T150 in the same culture medium as described above in the absence of Tet for 8 days. Cells were then harvested and frozen at density of 2×10^6 cells per mL. For compound testing, the frozen cells were thawed and seeded into 96-well plates at a density of 6×10^4 cells per well. At 24 hours after seeding, half log serial dilutions of compounds made with Dimethyl sulfoxide (DMSO, Sigma, Cat. D2650) were further diluted with the same culture medium as described above before they were added to the cells to reach desired final compound concentrations and 1% DMSO concentration. Plates were then incubated at 37° C. for another 5 days before measurement of HBeAg level and cell viability. […] HBeAg level were measured with enzyme-linked immunosorbent assay (ELISA) kit (Shanghai Kehua Diagnostic Medical Products Co., Ltd). Cell viability was assessed using Cell Counting Kit-8 (DonJindo, Cat. CK04-20). IC50 values were derived from the dose-response curve using 4 parameter logistic curve fit method.
The compounds of the present invention were tested for their capacity to inhibit extracellular HBeAg level as described herein.

[1] = Hepatitis B virus, HepDES19, 120 h, read-out: IC50 (HBeAg level, HepDES19 primary screen assay), HepDES19 cells, 5 days compound incubation, HBeAg ELISA

For `Cc1cc(-c2cc(=O)c3cccc(Cl)c3o2)c(OCC2(CC(=O)O)CC2)cc1Br` [Example A068, 2-[1-[[5-bromo-2-(8-chloro-4-oxo-chromen-2-yl)-4-methyl-phenoxy]methyl]cyclopropyl]acetic acid], which IC50 [1] is on record?
Its IC50 is 5.7 µM.

Which IC50 [1] does the source give for `COc1cc(O[C@H]2C[C@H](C(=O)O)C2)c(-c2cc(=O)c3cccc(Cl)c3o2)cc1Br` [Example B014, Trans-3-[4-bromo-2-(8-chloro-4-oxo-chromen-2-yl)-5-methoxy-phenoxy]cyclobutanecarboxylic acid] here?
The IC50 was 15.5 µM.

How did the IC50 [1] turn out when `O=C(O)C1CCC(OCCOc2cc(Br)ccc2-c2cc(=O)c3cccc(Cl)c3o2)C1` (centres unmarked) [Example C106, 3-[2-[5-bromo-2-(8-chloro-4-oxo-chromen-2-yl)phenoxy]ethoxy]cyclopentanecarboxylic acid] was run?
The IC50 was 2.1 µM.

Which IC50 (read-out: IC50 (HBeAg level, HepDES19 primary screen assay), HepDES19 cells, 5 days compound incubation, HBeAg ELISA) does the source give for `O=C(O)C1CC(COc2cc(Br)ccc2-c2cc(=O)c3cccc(Cl)c3o2)C1` (stereo in doubt) [Example B025-A, Cis-3-[[5-bromo-2-(8-chloro-4-oxo-chromen-2-yl)phenoxy]methyl]cyclobutanecarboxylic acid] here?
Its IC50 is 4.92 µM.

`O=C(COCCOc1cc(Br)ccc1-c1cc(=O)c2cccc(Cl)c2o1)N1CCC(O)C1` (centres unmarked) [Example C126, 2-[4-bromo-2-[2-[2-(3-hydroxypyrrolidin-1-yl)-2-oxo-ethoxy]ethoxy]phenyl]-8-chloro-chromen-4-one] was tested. Which IC50 [1] did it give?
The IC50 was 4.4 µM.

With `COc1cc(O[C@H]2C[C@@H](C(=O)O)N(S(=O)(=O)c3ccccc3)C2)c(-c2cc(=O)c3cccc(Cl)c3o2)cc1OC` [Example B081] as the compound, how does the IC50 [1] read?
The IC50 was 3.11 µM.

How did the IC50 [1] turn out when `O=c1cc(-c2ccc(Br)cc2OCCO[C@H]2C[C@@H](C(=O)O)C2)oc2c(Cl)c(C(F)(F)F)ccc12` [Example C048-A, Cis-3-[2-[5-bromo-2-[8-chloro-4-oxo-7-(trifluoromethyl)chromen-2-yl]phenoxy]ethoxy]cyclobutanecarboxylic acid] was run?
Its IC50 is 5.12 µM.

With `CCOc1ccc(-c2cc(=O)c3ccc(C(F)(F)F)c(Cl)c3o2)c(OCCOC2CC(C(=O)O)C2)c1` (centres unmarked) [Example C097, 3-[2-[2-[8-chloro-4-oxo-7-(trifluoromethyl)chromen-2-yl]-5-ethoxy-phenoxy]ethoxy]cyclobutanecarboxylic acid] as the compound, how does the IC50 [1] read?
Its IC50 is 1.31 µM.

For `O=C(O)[C@@H]1C[C@H](Oc2cc(Br)ccc2-c2cc(=O)c3cccc(Cl)c3o2)CN1` [Example B075, (2S,4S)-4-[5-bromo-2-(8-chloro-4-oxo-chromen-2-yl)phenoxy]pyrrolidine-2-carboxylic acid], which IC50 [1] is on record?
Its IC50 is 0.774 µM.

For `O=c1cc(-c2ccccc2O)oc2cc(O)ccc12` [Example F-1, 7-hydroxy-2-(2-hydroxyphenyl)chromen-4-one, reference compound], which IC50 [1] is on record?
The IC50 was > 50 µM.

`O=C(O)CCOc1cc(C(F)(F)F)ccc1-c1cc(=O)c2c(O)ccc(Cl)c2o1` [Example A045, 3-[2-(8-chloro-5-hydroxy-4-oxo-chromen-2-yl)-5-(trifluoromethyl)phenoxy]propanoic acid] was tested. Which IC50 [1] did it give?
Its IC50 is 2.03 µM.

With `COc1cc(OC2CC(C(=O)O)C2)c(-c2cc(=O)c3cccc(Cl)c3o2)cc1OC` (centres unmarked) [Example B006, 3-[2-(8-chloro-4-oxo-chromen-2-yl)-4,5-dimethoxy-phenoxy]cyclobutanecarboxylic acid] as the compound, how does the IC50 [1] read?
The IC50 was 5.48 µM.

Which IC50 [1] does the source give for `CCOc1ccc(-c2cc(=O)c3c(O)ccc(Cl)c3o2)c(O[C@H]2C[C@@H](C(=O)O)C2)c1` [Example B039-A, Cis-3-[2-(8-chloro-5-hydroxy-4-oxo-chromen-2-yl)-5-ethoxy-phenoxy]cyclobutanecarboxylic acid] here?
The IC50 was 6.76 µM.

`O=c1cc(-c2ccccc2OCCO[C@H]2C[C@@H](C(=O)O)C2)oc2c(Cl)c(C3CC3)ccc12` [Example C058-A, Cis-3-[2-[2-(8-chloro-7-cyclopropyl-4-oxo-chromen-2-yl)phenoxy]ethoxy]cyclobutanecarboxylic acid] was tested. Which IC50 [1] did it give?
The IC50 was 5.1 µM.

With `O=C1Cc2cc(OCCO[C@H]3C[C@@H](C(=O)O)C3)c(-c3cc(=O)c4cccc(Cl)c4o3)cc2N1` [Example C091, Cis-3-[2-[6-(8-chloro-4-oxo-chromen-2-yl)-2-oxo-indolin-5-yl]oxyethoxy]cyclobutanecarboxylic acid] as the compound, how does the IC50 [1] read?
The IC50 was 0.418 µM.

How did the IC50 [1] turn out when `O=c1cc(-c2ccc(C3CC3)cc2OCCO[C@H]2C[C@@H](C(=O)O)C2)oc2c(Cl)cccc12` [Example C069-A, Cis-3-[2-[2-(8-chloro-4-oxo-chromen-2-yl)-5-cyclopropyl-phenoxy]ethoxy]cyclobutanecarboxylic acid] was run?
Its IC50 is 5.09 µM.

With `O=c1cc(-c2ccc(Br)cc2OCCO[C@H]2C[C@@H](C(=O)O)C2)oc2c(Cl)c(F)ccc12` [Example C030-A, Cis-3-[2-[5-bromo-2-(8-chloro-7-fluoro-4-oxo-chromen-2-yl)phenoxy]ethoxy]cyclobutanecarboxylic acid] as the compound, how does the IC50 [1] read?
The IC50 was 1.37 µM.

Which IC50 [1] does the source give for `O=c1cc(-c2ccc(-c3nccs3)cc2OCCO[C@H]2C[C@H](C(=O)O)C2)oc2c(Cl)cccc12` [Example C066-B, Trans-3-[2-[2-(8-chloro-4-oxo-chromen-2-yl)-5-thiazol-2-yl-phenoxy]ethoxy]cyclobutanecarboxylic acid] here?
Its IC50 is 1.02 µM.

`Cc1cc(-c2cc(=O)c3cccc(Br)c3o2)c(OCCC(=O)O)cc1Cl` [Example A025, 3-[2-(8-bromo-4-oxo-chromen-2-yl)-5-chloro-4-methyl-phenoxy]propanoic acid] was tested. Which IC50 [1] did it give?
The IC50 was 3.55 µM.

With `CS(=O)(=O)NC(=O)[C@H]1C[C@H](OCCOc2cc(Br)ccc2-c2cc(=O)c3cccc(Cl)c3o2)C1` [Example C123, Trans-3-[2-[5-bromo-2-(8-chloro-4-oxo-chromen-2-yl)phenoxy]ethoxy]-N-methylsulfonyl-cyclobutanecarboxamide] as the compound, how does the IC50 [1] read?
Its IC50 is 6.53 µM.

How did the IC50 [1] turn out when `Cc1ccc2c(=O)cc(-c3ccccc3OCCO[C@H]3C[C@H](C(=O)O)C3)oc2c1Cl` [Example C029-B, Trans-3-[2-[2-(8-chloro-7-methyl-4-oxo-chromen-2-yl)phenoxy]ethoxy]cyclobutanecarboxylic acid] was run?
Its IC50 is 1.32 µM.

Which IC50 [1] does the source give for `O=C(O)[C@H]1CC[C@@H](Oc2cc(Br)ccc2-c2cc(=O)c3cccc(Cl)c3o2)C1` (relative stereo) [Example B028-A, Cis-3-[5-bromo-2-(8-chloro-4-oxo-chromen-2-yl)phenoxy]cyclopentanecarboxylic acid] here?
Its IC50 is 0.471 µM.

With `Cc1cc(-c2cc(=O)c3cccc(Cl)c3o2)c(O[C@H]2C[C@H](C(=O)NS(C)(=O)=O)C2)cc1Br` [Example B049-B, Trans-3-[5-bromo-2-(8-chloro-4-oxo-chromen-2-yl) 4-methyl-phenoxy]-N-methylsulfonyl-cyclobutanecarboxamide] as the compound, how does the IC50 [1] read?
The IC50 was 8.74 µM.

`O=C(O)CCCCCCOc1cc(C(F)(F)F)ccc1-c1cc(=O)c2cccc(Cl)c2o1` [Example A066, 7-[2-(8-chloro-4-oxo-chromen-2-yl)-5-(trifluoromethyl)phenoxy]heptanoic acid] was tested. Which IC50 [1] did it give?
Its IC50 is 2.44 µM.

How did the IC50 [1] turn out when `O=c1cc(-c2cc(Br)ccc2OCCO[C@H]2C[C@H](C(=O)O)C2)oc2c(Cl)cc(F)cc12` [Example C053-B, Trans-3-[2-[4-bromo-2-(8-chloro-6-fluoro-4-oxo-chromen-2-yl)phenoxy]ethoxy]cyclobutanecarboxylic acid] was run?
Its IC50 is 5.59 µM.

Which IC50 [1] does the source give for `CC(C)c1ccc(-c2cc(=O)c3cccc(Cl)c3o2)c(O[C@H]2C[C@@H](C(=O)O)C2)c1` [Example B020-A, Cis-3-[2-(8-chloro-4-oxo-chromen-2-yl)-5-isopropyl-phenoxy]cyclobutanecarboxylic acid] here?
The IC50 was 2.84 µM.

Which IC50 [1] does the source give for `O=C(O)c1cccc(OCCOc2cc(Br)ccc2-c2cc(=O)c3cccc(Cl)c3o2)c1` [Example C108, 3-[2-[5-bromo-2-(8-chloro-4-oxo-chromen-2-yl)phenoxy]ethoxy]benzoic acid] here?
The IC50 was 1.25 µM.

With `CSc1ccc(-c2cc(=O)c3cccc(Cl)c3o2)c(OCCO[C@H]2C[C@H](C(=O)O)C2)c1` [Example C064-B, trans-3-[2-[2-(8-chloro-4-oxo-chromen-2-yl)-5-methylsulfanyl-phenoxy]ethoxy]cyclobutanecarboxylic acid] as the compound, how does the IC50 [1] read?
The IC50 was 2.93 µM.

With `Cc1cc(-c2cc(=O)c3c(O)ccc(Cl)c3o2)c(O[C@H]2C[C@@H](C(=O)O)C2)cc1Br` [Example B040-A, cis-3-[5-bromo-2-(8-chloro-5-hydroxy-4-oxo-chromen-2-yl)-4-methyl-phenoxy]cyclobutanecarboxylic acid] as the compound, how does the IC50 [1] read?
Its IC50 is 0.302 µM.

From US11708344B2, “Flavone derivatives for the treatment and prophylaxis of hepatitis B virus disease” (Hoffmann-La Roche Inc., priority 2018, dated 2023)
